Reference: the supplement of paper PMC12533247
± gives the standard deviation of the averaged measurements.

Columns and labels:
primary keratinocytes = test: % change in live cells vs DMSO control; higher = less cytotoxic; conditions: time (h post treatment): 20
Method: (§1)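 Cytotoxicity in uninfected 2D primary donor keratinocytes (20 h post treatment) and fibroblasts (48 h post treatment), measured with NucSpot live/dead dyes on IncuCyte. Live cells are normalised to the 0.2% DMSO control and shown as % change. Three biological replicates for each of donors 3, 4 and 5.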

[1] = tested on: primary dermal fibroblasts; test: as above; conditions: time (h post treatment): 48
Method: as §1

Cc1cccc(C)c1N(CC(=O)Nc1ccc(-c2ncon2)cc1)C(=O)C1CCS(=O)(=O)CC1 [Amenamevir]
% change in live cells [%]
Conditions | 0.082305 µM | 0.246914 µM | 0.740741 µM | 2.22222 µM | 6.66667 µM | 20 µM | 60 µM
[1], donor: 3 | -6.67 ± 15 | -7 ± 15 | -7.33 ± 16 | -6 ± 16 | -6 ± 16 | -6.33 ± 19 | -6.33 ± 28
[1], donor: 4 | 5 ± 5.6 | 4.67 ± 2.1 | 2.67 ± 7.6 | 5 ± 14 | 6.67 ± 8.3 | 4.67 ± 15 | 0 ± 17
[1], donor: 5 | 2.33 ± 9.7 | 4.33 ± 16 | 3 ± 22 | 0 ± 23 | -3 ± 21 | -4.67 ± 20 | -23.3 ± 5.5
primary keratinocytes, donor: 3 | -5 ± 14 | -8.33 ± 0.58 | -12 ± 1.7 | -3.33 ± 16 | 1.67 ± 14 | -32.7 ± 9.1 | -70.3 ± 4.9
primary keratinocytes, donor: 4 | 8.33 ± 8.5 | -12.7 ± 12 | -6 ± 13 | -3.33 ± 25 | -36.7 ± 24 | -42 ± 34 | -63.3 ± 21
primary keratinocytes, donor: 5 | -7.67 ± 9.7 | -7 ± 13 | -5.67 ± 8.1 | -5.33 ± 8.5 | -1.67 ± 13 | 5.67 ± 15 | -5 ± 20

COc1ccc(-c2nc(N3CCOCC3)c3sc(CN(C)c4ncc(C(=O)NO)cn4)cc3n2)cn1 [Fimepinostat]
% change in live cells [%]
Conditions | 0.082305 µM | 0.246914 µM | 0.740741 µM | 2.22222 µM | 6.66667 µM | 20 µM | 60 µM
[1], donor: 3 | -29.3 ± 17 | -34.3 ± 18 | -41.3 ± 13 | -56 ± 12 | -61 ± 11 | -64.7 ± 12 | -75 ± 10
[1], donor: 4 | -13 ± 12 | -33.3 ± 1.5 | -44 ± 9.6 | -67.3 ± 14 | -60.3 ± 9.6 | -56.3 ± 16 | -60.3 ± 22
[1], donor: 5 | 6.67 ± 20 | -8.67 ± 19 | -23.3 ± 20 | -56.3 ± 18 | -60 ± 14 | -68 ± 7.5 | -79.3 ± 3.8
primary keratinocytes, donor: 3 | -23.3 ± 15 | -39.7 ± 23 | -38.7 ± 4 | -41.3 ± 14 | -42.3 ± 12 | -76 ± 6.1 | -95.3 ± 3.5
primary keratinocytes, donor: 4 | -5.33 ± 4.7 | -20.7 ± 18 | -34.3 ± 11 | -59 ± 6.2 | -79.3 ± 6 | -99.7 ± 3.2 | -94.33 ± 0.58
primary keratinocytes, donor: 5 | -8 ± 2.6 | -13.7 ± 7.6 | -38 ± 8 | -58.7 ± 7.1 | -67 ± 6 | -80.7 ± 2.1 | -95.33 ± 0.58

Nc1ccn([C@@H]2O[C@H](CO)[C@@H](O)C2(F)F)c(=O)n1 [Gemcitabine]
% change in live cells [%]
Conditions | 0.082305 µM | 0.246914 µM | 0.740741 µM | 2.22222 µM | 6.66667 µM | 20 µM | 60 µM
[1], donor: 3 | -21.3 ± 11 | -23.7 ± 14 | -27.3 ± 15 | -30.3 ± 16 | -33.3 ± 19 | -38 ± 12 | -43.7 ± 22
[1], donor: 4 | -9.33 ± 5.5 | -9.33 ± 9.3 | -15.7 ± 16 | -11.7 ± 11 | -9.67 ± 9.6 | -18 ± 16 | -19.7 ± 12
[1], donor: 5 | -5 ± 8.2 | -11.3 ± 12 | -21.3 ± 9.9 | -26.3 ± 12 | -34.3 ± 12 | -43.3 ± 14 | -52.7 ± 5.8
primary keratinocytes, donor: 3 | -37.7 ± 5.5 | -45.3 ± 6.5 | -49.7 ± 3.8 | -52.3 ± 7.8 | -57.3 ± 9.4 | -75.7 ± 6.8 | -77.7 ± 2.3
primary keratinocytes, donor: 4 | -63 ± 4.6 | -67.7 ± 12 | -63.7 ± 14 | -63.7 ± 13 | -74.3 ± 11 | -76.3 ± 13 | -87.3 ± 6.3
primary keratinocytes, donor: 5 | -51.3 ± 3.5 | -52.7 ± 5.1 | -51.3 ± 8.6 | -55.7 ± 6.5 | -61 ± 7.8 | -70 ± 7.2 | -78.7 ± 6.7

CC(C)c1cnn2c(NCc3ccccc3-n3cccn3)nc(OC3CCCNC3)nc12 (stereo not given) [LDC4297]
% change in live cells [%]
Conditions | 0.082305 µM | 0.246914 µM | 0.740741 µM | 2.22222 µM | 6.66667 µM | 20 µM | 60 µM
[1], donor: 3 | -12.3 ± 19 | -11.3 ± 15 | -17.3 ± 16 | -22.3 ± 12 | -23 ± 15 | -24.3 ± 21 | -30.3 ± 29
[1], donor: 4 | -2.33 ± 1.5 | -6.33 ± 3.5 | -5.33 ± 3.2 | -5 ± 5.3 | -7.33 ± 9.9 | -3 ± 6.6 | 0.667 ± 11
[1], donor: 5 | -0.667 ± 5.5 | -2.33 ± 10 | -7 ± 13 | -16.3 ± 15 | -22.7 ± 10 | -27.3 ± 12 | -33 ± 2.6
primary keratinocytes, donor: 3 | -12 ± 8.2 | -41.3 ± 19 | -36 ± 8.5 | -56.3 ± 5.1 | -75 ± 5.3 | -80.3 ± 1.5 | -90 ± 1
primary keratinocytes, donor: 4 | 1 ± 7.8 | -17.7 ± 23 | -37 ± 15 | -70 ± 24 | -98.67 ± 0.58 | -97.7 ± 3.2 | -99.67 ± 0.58
primary keratinocytes, donor: 5 | -10.3 ± 1.5 | -17 ± 7 | -27.7 ± 5.9 | -51.7 ± 6.1 | -94.33 ± 0.58 | -95 | -95.3 ± 1.1

CC(=O)O[C@H]1C[C@H](O[C@H]2[C@@H](O)C[C@H](O[C@H]3[C@@H](O)C[C@H](O[C@H]4CC[C@@]5(C)[C@H](CC[C@@H]6[C@@H]5C[C@@H](O)[C@]5(C)[C@@H](C7=CC(=O)OC7)CC[C@]65O)C4)O[C@@H]3C)O[C@@H]2C)O[C@H](C)[C@H]1O[C@@H]1O[C@H](CO)[C@@H](O)[C@H](O)[C@H]1O [Lanatoside C]
% change in live cells [%]
Conditions | 0.082305 µM | 0.246914 µM | 0.740741 µM | 2.22222 µM | 6.66667 µM | 20 µM | 60 µM
[1], donor: 3 | -25.7 ± 14 | -39.7 ± 12 | -48.3 ± 11 | -47 ± 12 | -46 ± 13 | -43.3 ± 17 | -49.3 ± 19
[1], donor: 4 | -1.33 ± 4 | -20 ± 6.9 | -28.3 ± 19 | -29.7 ± 17 | -24.3 ± 12 | -22.7 ± 16 | -23.3 ± 8.1
[1], donor: 5 | -11.3 ± 12 | -32.7 ± 14 | -31.7 ± 21 | -37.3 ± 19 | -42 ± 14 | -46.7 ± 20 | -58.7 ± 7.8
primary keratinocytes, donor: 3 | -27 ± 14 | -47 ± 2.6 | -55.3 ± 3.5 | -53.7 ± 6.1 | -58 ± 6.2 | -67.7 ± 4.5 | -71.3 ± 10
primary keratinocytes, donor: 4 | -18 ± 5.2 | -39.7 ± 13 | -63 ± 12 | -64 ± 12 | -71.3 ± 9.1 | -76.3 ± 9.6 | -76.3 ± 9.5
primary keratinocytes, donor: 5 | -3.67 ± 2.1 | -54.3 ± 2.5 | -58.3 ± 3.2 | -59 ± 5.3 | -56.3 ± 2.5 | -57.3 ± 7.1 | -62.3 ± 6.4
